These results are taken from US11358940B2, “K-Ras modulators” (THE REGENTS OF THE UNIVERSITY OF CALIFORNIA, priority 2017, dated 2022).

Holding throughout (assay type): binding
The target of one test is H95 site of KRas (Homo sapiens, UniProt P01116, H95C). Description: Thermal melting analysis. Particulars: FIG. 3.
For test [1], the target named is T1, Kras4b H95C (1-169) mutant protein (GppNHp-loaded) (Homo sapiens, UniProt P01116, H95C).
T1 construct: we generated Kras4b H95C (1-169) mutant protein; made in house
Nature of the test: Disulfide tethering screen, dose response. As to conditions: FIG. 2. From the text: Disulfide tethering is a site-directed fragment-based approach to drug-discovery, which allows the screening low-affinity disulfide containing fragments against a native or introduced cysteine residue of a target protein. Fragment binding is reversible, and can be tuned to favor detection of only the strongest bound fragments through the use of increasing concentrations of a reductant (typically β-mecaptoethanol). This binding is not purely driven by reactivity; it is influenced by protein/ligand interactions and is independent of pKa or surface exposure. Bound fragments are detected by mass spectrometry and provide a lead into the drug discovery process.
To target H95 specifically, we generated Kras4b H95C (1-169) mutant protein, and used it (GppNHp-loaded), to search for compounds that could bind to active KRas in close proximity to H95. We performed a tethering screen of a disulfide containing fragment library at the University of California San Francisco.

Test [2] addresses T2, GDP loaded KRAS4b(1-169) H95C/C118S mutant (Homo sapiens, UniProt P01116, C118S/H95C).
T2 construct: loaded KRAS4b(1-169) H95C/C118S mutant
Nature of the test: MALDI-TOF percentage labeling of C95, GDP-loaded protein. As to conditions: for level of covalent labeling to C95 (percent of labeling), GDP, 3 h: 3 h incubation; for level of covalent labeling to C95 (percent of labeling), GDP, 6 h: 6 h incubation; for level of covalent labeling to C95 (percent of labeling), GDP, 24 h: 24 h incubation. As to the method:
(§1) Table 1 is a table summarizing levels of covalent labeling to C95 as analyzed by MALDI-TOF MS for a series of synthesized compounds. […] Both species, GDP or nonhydrolyzable analogue of GTP—GppNHp-loaded KRAS4b H95C/C118S, were then reacted with a panel of epoxides and analyzed by MALDI-TOF MS to assess level of covalent modification to C95 after 3 h, 6 h, or 24 h of incubation with the protein. All R isomers show enhanced activity compared to S isomers.
(§2) Example 18: Percentage Labeling Determination for Compounds Targeting KRAS4b Residue 95 by Matrix Assisted Laser Desorption Ionization-Time of Flight Mass Spectrometry (MALDI-TOF)
(§3) The assay uses four tool proteins: • Guanosine diphosphate (GDP) loaded KRAS4b(1-169) H95C/C118S mutant • 5′-Guanylyl imidodiphosphate (GppNHp) loaded KRAS4b(1-169) H95C/C118S mutant • GDP loaded KRAS4b(1-169) C118S mutant • GppNHp loaded KRAS4b(1-169) C118S mutant
(§4) 20 μM Solution of protein in 20 mM HEPES, 150 mM NaCl, 1 mM MgCl2, pH 7.3 buffer was prepared freshly before assay. 20 μl Aliquots of protein were dispensed on 384 well polypropylene plate, then tested compounds (0.8 μl, 10 mM in DMSO) were added to appropriate wells. For each reaction/assay three blank and three control samples were prepared by mixing 20 μl of protein solution with 0.8 μl DMSO or 10 mM standards (compounds 994566 and FB9). The wells content was carefully mixed by aspiration, then plate was sealed by adhesive cover, centrifuged at 2000 g for 1 minute and kept in dark at room temperature for 3, 6 (or 8) and 24 h.
(§5) Before each assay MALDI target (Bruker MPT 384 ground steel BC) was pre-treated by pipetting on each spot 1 μl of saturated sinapinic acid in acetonitrile (ACN).
(§6) After 24 h reaction, 2 μl of reaction mixtures were pipetted out into 20 μl MALDI matrix solution (saturated solution of sinapinic acid in 1:1 ACN:water solution containing 0.75% trifluoroacetic acid (TFA)) deposited on 384 well polypropylene plate. Resulting solution was mixed by aspiration, centrifuged at 2000 g for 1 minute, then 2 μl aliquots were dispensed on pre-treated MALDI target using Beckman Coulter Biomek FX^P 96/Span-8 Laboratory Automation Workstation. Finally, the MALDI target was dried under mild vacuum to produce spots with fine crystalline structure.
MALDI-TOF measurements were performed on Bruker Daltonics ultraflex III TOF-TOF mass spectrometer using linear mode and mass range from 5 to 45 kDa. Detector gain was set to ×9 (1734 V), sample rate to 1 GS/s, smart beam parameter set: 3_medium was used, and the laser frequency was 66.7 Hz. Spectra were automatically collected using custom AutoXecute method. Laser power was auto-adjusted using fuzzy control. The peak selection range was set to be between 19000 and 20200 Da. Peak evaluation uses half width parameter set to be smaller than 30 Da. Fuzzy control used Proteins/Oligonucleotides protocol with minimum half width ⅙ times above threshold. Up to 1500 shots were collected in 500 shot steps. Dynamic termination was implemented to finish data collection when peak intensity was reaching value of 1200 [a.u.].
Spectra were smoothed by SavitzkyGolay algorithm using 5 m/z width and three cycles. Centroid peak detection algorithm was used with signal to noise threshold set to 4, relative intensity threshold 2%, minimum intensity threshold 20 [a.u.], peak width 10 m/z and TopHat baseline subtraction. Peak intensity and area under the peak were evaluated and recorded for all peaks between 19248 Da and 20500 Da for H95/C118 mutant and 19285 Da and 20500 Da for C118 mutant respectively.
Percent of labeling was calculated using followed equation:
[formula] Similar results were obtained when peak area instead of peak height was used for calculations, however peak height method produced more reliable data in case of poor quality spectra.

Test [3] concerns the target T3, GppNHp loaded KRAS4b(1-169) H95C/C118S mutant (Homo sapiens, UniProt P01116, C118S/H95C).
T3 construct: loaded KRAS4b(1-169) H95C/C118S mutant
Description: MALDI-TOF percentage labeling of C95, GppNHp-loaded protein. Particulars: for level of covalent labeling to C95 (percent of labeling), GppNHp, 3 h: 3 h incubation; for level of covalent labeling to C95 (percent of labeling), GppNHp, 6 h: 6 h incubation; for level of covalent labeling to C95 (percent of labeling), GppNHp, 24 h: 24 h incubation. The method, then:
as §1
150 to 300 μM solution of GDP loaded protein in KRAS buffer was prepared (20 mM HEPES, 150 mM NaCl, 1 mM MgCl2, 0.05 mM TCEP, pH 7.3). To this was added vigorously 1500×molar excess of 1 M ammonium sulfate in KRAS buffer, and the combination mixed gently by inverting tube. Next was prepared 250 mM solution of GppNHp (150 molar excess of GppNHp to protein; keep it on ice). To the protein was pipetted 10% of prepared GppNHp solution, then suspension of alkaline phosphatase from calf intestine on agarose was added (Sigma-Aldrich, P0726) to have 2 units of enzyme per each mg of protein. The reaction mixture was incubated at room temperature, rotating end-over for 1 h 30 min. The alkaline phosphatase was removed on agarose beads by filtering solution to a new vial using Millex-GP syringe filter. Remaining solution of GppNHp was added and incubated for additional 45 min. At the end of the exchange the protein was filtered again, placed on ice, and purified on NGC medium-pressure chromatography system (Bio-Rad). Five in-lane connected desalting columns (5×GE Healthcare HiTrap Desalting columns 5 ml, 17-1408-01) were used with isocratic elution of KRAS buffer at 4 ml/min. The protein elution was monitored at 280 nm. The concentration of final protein was evaluated by NanoDrop 2000 spectrophotometer (Thermo Fisher) using molar attenuation coefficient ε=19685 l·mol^−1·cm^−1. The quality of the protein was confirmed by MALDI and the exchange rate was assessed by HPLC based assay.
as §2, §3, §4, §5, §6
MALDI-TOF measurements were performed on Bruker Daltonics ultraflex III TOF-TOF mass spectrometer using linear mode and mass range from 5 to 45 kDa. […]

With `CN(C)CCSSCCn1cc(CNC(=O)c2n[nH]c3ccccc23)nn1` [compound 966854], the “shift in Tm upon fragment binding” value at H95 site of KRas is given as “significant shifts in Tm”. Moreover, the “binding at H95 site of KRas in dose response experiments” value (from here on “binding at H95 site of KRas”) in test [1] is “strong binders”.

On to `Cc1ccc(S(=O)(=O)c2cn(CCSSCCN(C)C)nn2)cc1` [compound 966844], for which, at H95 site of KRas, the “shift in Tm upon fragment binding” value was “significant shifts in Tm”. Moreover, in test [1], the “binding at H95 site of KRas” value is “strong binders”.

Regarding `COc1ccc(Cl)cc1C(=O)N1CCCC(C(=O)N[C@@H](CC(C)C)C(=O)[C@@]2(C)CO2)C1` (stereo partly drawn), in test [2], the “level of covalent labeling to C95 (percent of labeling), GDP, 3 h” value (from here on “level … (percent of labeling), GDP, 3 h”) is 0%; the “level of covalent labeling to C95 (percent of labeling), GDP, 6 h” value (shortened to “level … (percent of labeling), GDP, 6 h”) is on record as 0%; the “level of covalent labeling to C95 (percent of labeling), GDP, 24 h” value (“level … (percent of labeling), GDP, 24 h” below) is given as 0%. Further, in test [3], the “level of covalent labeling to C95 (percent of labeling), GppNHp, 3 h” value (shortened to “level … (percent of labeling), GppNHp, 3 h”) was determined as 0%; the “level of covalent labeling to C95 (percent of labeling), GppNHp, 6 h” value (shortened to “level … (percent of labeling), GppNHp, 6 h”) is on record as 0%; the “level of covalent labeling to C95 (percent of labeling), GppNHp, 24 h” value (shortened to “level … (percent of labeling), GppNHp, 24 h”) came to 0%.

As for `CN(C)CCSSCCNC(=O)Cc1ccc(Cl)c(Cl)c1` [compound 917105], the “shift in Tm upon fragment binding” value at H95 site of KRas is “significant shifts in Tm”. For the same molecule, the “binding at H95 site of KRas” value in test [1] is “strong binders”.

For the molecule `Cn1nc(C(=O)NCc2cn(C[C@@H]3CO3)nn2)c2ccccc21` [drawing 514], in test [2], the “level … (percent of labeling), GDP, 3 h” value is reported as 3%; the “level … (percent of labeling), GDP, 6 h” value stood at 9%; the “level … (percent of labeling), GDP, 24 h” value is listed as 38%. Also, in test [3], the “level … (percent of labeling), GppNHp, 3 h” value is listed as 0%; the “level … (percent of labeling), GppNHp, 6 h” value was found to be 3%; the “level … (percent of labeling), GppNHp, 24 h” value is listed as 13%.

Turning to `CC(C)C[C@H](NC(=O)c1cn(C)c2ccccc12)C(=O)[C@@]1(C)CO1`, in test [2], the “level … (percent of labeling), GDP, 3 h” value was determined as 0%; the “level … (percent of labeling), GDP, 6 h” value is 0%; the “level … (percent of labeling), GDP, 24 h” value was 0%. In addition, in test [3], the “level … (percent of labeling), GppNHp, 3 h” value was determined as 0%; the “level … (percent of labeling), GppNHp, 6 h” value turned out to be 0%; the “level … (percent of labeling), GppNHp, 24 h” value came to 0%.

Take `Cc1ccc(S(=O)(=O)c2cn(CC3OC3(C)C)nn2)cc1` (stereo not drawn): in test [2], the “level … (percent of labeling), GDP, 3 h” value was determined as 0%; the “level … (percent of labeling), GDP, 6 h” value stood at 0%; the “level … (percent of labeling), GDP, 24 h” value was 0%. Also, in test [3], the “level … (percent of labeling), GppNHp, 3 h” value is listed as 0%; the “level … (percent of labeling), GppNHp, 6 h” value is recorded as 0%; the “level … (percent of labeling), GppNHp, 24 h” value stood at 0%.

In the case of `O=C(NCc1cn(C[C@H]2CO2)nn1)c1c[nH]c2ccccc12`, in test [2], the “level … (percent of labeling), GDP, 3 h” value is reported as 0%; the “level … (percent of labeling), GDP, 6 h” value worked out at 5%; the “level … (percent of labeling), GDP, 24 h” value is 31%. Besides, in test [3], the “level … (percent of labeling), GppNHp, 3 h” value is 0%; the “level … (percent of labeling), GppNHp, 6 h” value is listed as 2%; the “level … (percent of labeling), GppNHp, 24 h” value came out at 11%.

Take `Cn1nc(C(=O)NCc2cn(C[C@@H]3CO3)nn2)c2cc(Br)ccc21`: in test [2], the “level … (percent of labeling), GDP, 3 h” value is 23%; the “level … (percent of labeling), GDP, 6 h” value is 52%; the “level … (percent of labeling), GDP, 24 h” value is 96%. In test [3], the “level … (percent of labeling), GppNHp, 3 h” value was 0%; the “level … (percent of labeling), GppNHp, 6 h” value was 4%; the “level … (percent of labeling), GppNHp, 24 h” value turned out to be 19%.
